According to patent US11773096B2, “Small-molecule PI5P4K alpha/beta inhibitors and methods of treatment using same” (YALE UNIVERSITY, priority 2018, dated 2023):

What was measured:
[1] = system: BT-474 cells; experiment: Intracellular ROS (DCFDA); assay type: cell-based; conditions: 20 μM
Description: 2′,7′-dichlorofluorescin diacetate (DCFDA) was used to assess intracellular ROS levels. DCFDA is deacetylated in the cell and oxidized by ROS to a fluorescent product 2′,7′-dichlorofluorescein (DCF). BT-474 cells were plated on a black clear-bottom 96-well plate (Corning 3603; 2×10^4 cells per well). ROS was measured by a DCFDA cellular ROS detection assay kit (Abcam) following the manufacturer's protocol. The cells were treated with compound for 6 hrs before fluorescence was measured using a SpectraMax M5 plate reader (excitation 485 nm, emission 535 nm).

[2] = system: C2Cl2 myotubes; experiment: Adenine nucleotides measurement in myotubes (luminescent ATP kit, HPLC, LC-MS/MS); assay type: cell-based, mouse
Description: C2Cl2 cells were plated and differentiated on the same type of plates. After treatment with compound overnight, total cellular ATP levels were measured by a luminescent ATP detection assay kit (Abcam) following manufacturer's protocol and normalized against the total protein concentration.
To measure nucleotide concentration using HPLC or LC-MS/MS, cells were rinsed three times with DPBS buffer at room temperature and lysed in ice-cold 0.4M perchloric acid (500 μl acid per 10^6 cells). The culture dishes were sealed and transferred to a −80° C. freezer. Cell lysates were then thawed on ice, scraped off, and centrifuged at 14,000 rpm at 4° C. for 10 min. The pellet was solubilized in 0.2M NaOH and set aside for measurement of protein concentration. The supernatant was transferred to clean tubes and neutralized with 3M KHCO3. The neutralized sample was kept on ice for 10 min and then transferred to a −80° C. freezer. After 2 hrs, thawed sample was centrifuged again to remove the precipitated perchlorate, filtered, adjusted according to protein concentration, aliquoted and stored at −80° C. The sample was thawed on ice just before the HPLC or LC-MS/MS experiment. […] The nucleotides were separated using 20 mM ammonium acetate in water (solvent A) and 5% acetonitrile in water buffered with 20 mM ammonium acetate (solvent B), which were both adjusted with ammonium hydroxide to pH 9.0. The flow rate was 0.7 mL/min, and the column temperature was maintained at 35° C. The gradient elution program was: 0-2 min, 0-5% B; 2-12 min, 5-10% B; 12-22 min, 10-20% B; 22-25 min, 20-100% B; 25-30 min, 100% B, and then back to 100% A for 1 min, which was maintained for another 9 min to recondition the column. Mass spectrometric ESI ionization was performed in the negative ion mode and the source parameters were set as follows: gas temperature, 200° C.; gas flow, 12 L/min; nebulizer pressure, 35 psi; sheath gas temperature, 200° C.; sheath gas flow, 12 L/min; capillary voltage, −4,000V; fragmentor voltage, 380V.

[3] = target: mTOR/FRAP1 (Homo sapiens, UniProt P42345); experiment: In vitro kinase profiling; assay type: biochemical
[4] = system: BT474 cells; experiment: Immunoblot analysis in BT474 cells; assay type: cell-based
Description: (§1) After wash with cold DPBS buffer, cells were lysed in RIPA buffer that contained 50 mM Tris-HCl pH 8.0, 150 mM NaCl, 1 mM EDTA, 1 mM EGTA, 1% NP-40, 0.5% sodium deoxycholate, 0.1% SDS, and protease and phosphatase inhibitor cocktails (Roche). Total protein concentrations were measured using a BCA assay (Thermo scientific). Cell lysate (about 80 μg protein) was resolved by SDS-PAGE and blotted onto PVDF membranes. The membranes were probed overnight at 4° C. with appropriate primary antibodies (Cell Signaling Technology) and incubated with secondary fluorescent antibodies (LI-COR Biosciences) for 1 hr at room temperature before imaging by an Odyssey CLx system.

[5] = system: myotubes; experiment: Glucose consumption and lactate production in myotube culture media; assay type: cell-based
Description: (§2) To measure glucose consumption and lactate production, a total of 1×10^5 cells were seeded into each well of a 12-well plate and cultured in the presence of compound for 48 hrs. The culture media were collected and deproteinized by centrifugation using an Amicon Ultra centrifugal filter (3 kDa cut-off), while cells were lysed and used for protein concentration determination by BCA assay. The media were assayed immediately for glucose and lactate levels using colorimetric assay kits from BioVision following the manufacturer's protocols. The values were normalized against protein concentration. All measurements were made in triplicate.

[6] = target: TNIK (Homo sapiens, UniProt Q9UKE5); experiment: HotSpot protein kinase panel; conditions: read-out: TNIK activity remaining
Description: (§3) In both titrations, the ATP concentration was fixed at 50 μM. The assay kits for Plk1 and RSK2 were obtained from Promega (Madison, Wis.), which use ADP-Glo™ for activity detection.

[7] = system: BT474 cells; experiment: Cell cycle analysis by flow cytometry; assay type: cell-based
Description: To monitor cell cycle progression, cells were harvested by trypsinization, washed with DPBS, and fixed with cold 70% ethanol for 30 min at 4° C. Before analysis, 2×10^6 cells were washed with DPBS three times and treated with 100 μl 100 μg/ml ribonuclease (DNase-free; Sigma Aldrich) for 10 min at room temperature. Samples were then stained for total DNA using 400 μl DPBS containing 50 μg/ml propidium iodide (Invitrogen). Cell cycle distribution was analyzed by a BD LSR II flow cytometer.

[8] = target: TYRO3 (Homo sapiens, UniProt Q06418); experiment: HotSpot protein kinase panel; conditions: read-out: TYRO3 activity remaining
[9] = system: panel of 14 lipid kinases; experiment: Lipid kinase panel (ADP-Glo), panel as a whole; conditions: compound 0.5 μM, ATP 10 μM
Description: In both titrations, the ATP concentration was fixed at 50 μM.

[10] = system: MCF10A p53(−/−) cells; experiment: Cell death upon serum withdrawal, trypan blue staining; assay type: cell-based
Description: However, the difference is lost when EGF is added to the culture media. […] FIG. 17C: Cell death upon serum withdrawal is measured by trypan blue staining. p53(−/−) Cells are more susceptible to metabolic perturbations caused by glucose starvation.

[11] = system: BT474 cells; experiment: Glucose consumption and lactate secretion in BT474 cells; assay type: cell-based
Description: as §2

[12] = system: MCF7 cells; experiment: Immunoblot analysis of AMPK activation in MCF7 cells; assay type: cell-based
Description: as §1

[13] = target: RSK2 (Homo sapiens, UniProt P51812); experiment: HotSpot protein kinase panel; conditions: read-out: RSK2 activity remaining
Description: as §3

[14] = target: PI4P5Kγ (Homo sapiens, UniProt O60331); experiment: Lipid kinase panel (ADP-Glo); conditions: read-out: PI4P5Kγ activity remaining
[15] = target: EIF2AK3 (Homo sapiens, UniProt Q9NZJ5); experiment: HotSpot protein kinase panel; conditions: read-out: EIF2AK3 activity remaining
Chain of EIF2AK3 (Q9NZJ5 30-1116): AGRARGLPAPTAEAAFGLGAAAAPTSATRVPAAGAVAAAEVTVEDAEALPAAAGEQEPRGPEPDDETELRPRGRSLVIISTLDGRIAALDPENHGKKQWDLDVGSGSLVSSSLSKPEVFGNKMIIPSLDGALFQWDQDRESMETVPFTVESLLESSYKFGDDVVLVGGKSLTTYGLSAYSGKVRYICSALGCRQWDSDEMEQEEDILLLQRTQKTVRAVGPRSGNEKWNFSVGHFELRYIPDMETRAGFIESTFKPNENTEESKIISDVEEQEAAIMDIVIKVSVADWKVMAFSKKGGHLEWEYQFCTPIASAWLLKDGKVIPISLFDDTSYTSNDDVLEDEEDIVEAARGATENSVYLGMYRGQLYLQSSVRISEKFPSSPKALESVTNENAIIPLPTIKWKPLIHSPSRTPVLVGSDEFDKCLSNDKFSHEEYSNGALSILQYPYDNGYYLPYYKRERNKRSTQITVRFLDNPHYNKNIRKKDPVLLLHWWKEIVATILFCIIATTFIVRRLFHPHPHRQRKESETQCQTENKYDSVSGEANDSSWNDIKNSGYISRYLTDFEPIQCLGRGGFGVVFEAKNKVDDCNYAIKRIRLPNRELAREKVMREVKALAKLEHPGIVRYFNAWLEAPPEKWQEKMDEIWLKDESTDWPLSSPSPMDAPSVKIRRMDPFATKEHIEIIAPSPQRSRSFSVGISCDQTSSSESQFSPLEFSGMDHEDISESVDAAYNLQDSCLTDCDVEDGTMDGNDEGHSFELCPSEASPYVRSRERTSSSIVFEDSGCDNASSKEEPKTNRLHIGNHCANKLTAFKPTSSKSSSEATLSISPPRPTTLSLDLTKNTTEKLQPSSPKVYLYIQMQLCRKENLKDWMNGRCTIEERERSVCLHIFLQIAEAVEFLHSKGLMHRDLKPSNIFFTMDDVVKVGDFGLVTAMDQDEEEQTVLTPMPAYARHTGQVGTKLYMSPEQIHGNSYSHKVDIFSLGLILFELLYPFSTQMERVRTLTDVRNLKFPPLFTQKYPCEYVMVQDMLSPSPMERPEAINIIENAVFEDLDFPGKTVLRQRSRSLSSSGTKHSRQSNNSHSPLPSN

Chain of TNIK (Q9UKE5 whole entry): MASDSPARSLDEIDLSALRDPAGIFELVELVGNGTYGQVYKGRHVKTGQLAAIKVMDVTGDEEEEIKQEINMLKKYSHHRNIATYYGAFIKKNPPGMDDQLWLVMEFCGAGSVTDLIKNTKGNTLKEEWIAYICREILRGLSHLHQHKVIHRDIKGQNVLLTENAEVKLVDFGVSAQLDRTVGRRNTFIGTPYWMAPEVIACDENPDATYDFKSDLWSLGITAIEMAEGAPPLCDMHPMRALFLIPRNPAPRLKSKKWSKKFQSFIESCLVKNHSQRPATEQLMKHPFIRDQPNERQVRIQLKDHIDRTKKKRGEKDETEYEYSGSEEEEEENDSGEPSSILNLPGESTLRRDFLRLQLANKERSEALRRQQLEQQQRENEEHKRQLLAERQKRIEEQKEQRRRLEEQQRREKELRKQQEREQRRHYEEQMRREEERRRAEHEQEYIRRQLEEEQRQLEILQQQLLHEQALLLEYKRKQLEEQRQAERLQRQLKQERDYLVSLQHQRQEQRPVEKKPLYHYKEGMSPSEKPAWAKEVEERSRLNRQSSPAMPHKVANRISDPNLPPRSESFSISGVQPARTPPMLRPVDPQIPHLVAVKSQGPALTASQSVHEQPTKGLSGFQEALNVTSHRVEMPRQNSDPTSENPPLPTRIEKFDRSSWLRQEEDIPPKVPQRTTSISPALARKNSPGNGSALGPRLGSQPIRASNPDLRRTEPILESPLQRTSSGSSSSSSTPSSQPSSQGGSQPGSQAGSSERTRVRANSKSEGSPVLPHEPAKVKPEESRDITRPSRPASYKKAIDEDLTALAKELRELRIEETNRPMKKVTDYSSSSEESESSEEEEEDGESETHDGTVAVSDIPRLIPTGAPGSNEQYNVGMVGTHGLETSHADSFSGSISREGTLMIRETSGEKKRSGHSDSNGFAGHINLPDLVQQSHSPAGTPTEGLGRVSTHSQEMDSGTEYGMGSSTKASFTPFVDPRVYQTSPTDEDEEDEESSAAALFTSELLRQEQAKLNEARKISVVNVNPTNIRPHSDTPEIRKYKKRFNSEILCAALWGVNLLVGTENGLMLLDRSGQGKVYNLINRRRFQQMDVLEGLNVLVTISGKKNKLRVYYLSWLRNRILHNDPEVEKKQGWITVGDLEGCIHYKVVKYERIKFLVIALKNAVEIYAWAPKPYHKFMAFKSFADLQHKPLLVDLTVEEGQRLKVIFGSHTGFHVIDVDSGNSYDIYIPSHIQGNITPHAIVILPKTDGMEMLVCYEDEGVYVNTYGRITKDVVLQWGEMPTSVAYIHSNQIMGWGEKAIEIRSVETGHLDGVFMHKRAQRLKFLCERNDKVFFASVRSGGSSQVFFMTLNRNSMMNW
Chain of RSK2 (P51812 whole entry): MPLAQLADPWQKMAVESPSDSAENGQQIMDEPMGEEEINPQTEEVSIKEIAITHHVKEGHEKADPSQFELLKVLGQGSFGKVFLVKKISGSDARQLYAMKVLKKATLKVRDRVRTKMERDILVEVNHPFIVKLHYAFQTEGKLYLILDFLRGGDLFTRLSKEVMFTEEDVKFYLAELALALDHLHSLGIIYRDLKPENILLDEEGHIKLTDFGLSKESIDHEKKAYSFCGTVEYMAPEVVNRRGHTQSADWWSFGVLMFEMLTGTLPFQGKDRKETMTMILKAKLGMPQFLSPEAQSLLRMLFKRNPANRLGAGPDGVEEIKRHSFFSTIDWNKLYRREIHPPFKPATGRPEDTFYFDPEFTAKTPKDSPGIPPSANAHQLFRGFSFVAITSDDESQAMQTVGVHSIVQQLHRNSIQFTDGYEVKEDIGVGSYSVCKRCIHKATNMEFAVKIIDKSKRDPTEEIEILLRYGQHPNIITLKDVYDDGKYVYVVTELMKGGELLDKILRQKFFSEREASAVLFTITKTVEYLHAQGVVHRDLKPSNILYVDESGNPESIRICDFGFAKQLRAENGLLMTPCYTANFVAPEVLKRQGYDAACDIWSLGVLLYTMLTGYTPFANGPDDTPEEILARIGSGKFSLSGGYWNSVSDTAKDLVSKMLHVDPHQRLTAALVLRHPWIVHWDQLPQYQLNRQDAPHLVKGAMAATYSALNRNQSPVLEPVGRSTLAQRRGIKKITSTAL
Chain of TYRO3 (Q06418 41-890): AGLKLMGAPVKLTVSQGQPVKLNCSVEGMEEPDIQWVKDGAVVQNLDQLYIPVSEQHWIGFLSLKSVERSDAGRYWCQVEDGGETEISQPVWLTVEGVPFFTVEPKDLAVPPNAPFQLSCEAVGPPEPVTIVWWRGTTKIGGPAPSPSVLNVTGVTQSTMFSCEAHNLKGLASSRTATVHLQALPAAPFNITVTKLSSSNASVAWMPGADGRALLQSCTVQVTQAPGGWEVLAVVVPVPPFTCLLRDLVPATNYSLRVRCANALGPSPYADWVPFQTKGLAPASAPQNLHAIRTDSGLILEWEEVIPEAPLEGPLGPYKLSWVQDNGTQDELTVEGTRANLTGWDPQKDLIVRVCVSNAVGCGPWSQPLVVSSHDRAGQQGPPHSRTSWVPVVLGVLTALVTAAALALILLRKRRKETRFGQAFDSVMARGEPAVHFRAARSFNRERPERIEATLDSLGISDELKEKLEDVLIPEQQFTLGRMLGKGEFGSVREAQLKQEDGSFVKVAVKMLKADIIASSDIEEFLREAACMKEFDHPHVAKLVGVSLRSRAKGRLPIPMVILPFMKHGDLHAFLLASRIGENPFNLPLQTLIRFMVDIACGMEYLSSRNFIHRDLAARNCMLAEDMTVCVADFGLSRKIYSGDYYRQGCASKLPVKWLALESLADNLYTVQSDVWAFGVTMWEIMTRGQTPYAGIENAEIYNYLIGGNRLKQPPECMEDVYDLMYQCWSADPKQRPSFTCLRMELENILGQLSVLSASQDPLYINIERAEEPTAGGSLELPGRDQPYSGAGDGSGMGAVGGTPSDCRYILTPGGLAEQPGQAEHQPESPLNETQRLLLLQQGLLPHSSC
Chain of PI4P5Kγ (O60331 whole entry): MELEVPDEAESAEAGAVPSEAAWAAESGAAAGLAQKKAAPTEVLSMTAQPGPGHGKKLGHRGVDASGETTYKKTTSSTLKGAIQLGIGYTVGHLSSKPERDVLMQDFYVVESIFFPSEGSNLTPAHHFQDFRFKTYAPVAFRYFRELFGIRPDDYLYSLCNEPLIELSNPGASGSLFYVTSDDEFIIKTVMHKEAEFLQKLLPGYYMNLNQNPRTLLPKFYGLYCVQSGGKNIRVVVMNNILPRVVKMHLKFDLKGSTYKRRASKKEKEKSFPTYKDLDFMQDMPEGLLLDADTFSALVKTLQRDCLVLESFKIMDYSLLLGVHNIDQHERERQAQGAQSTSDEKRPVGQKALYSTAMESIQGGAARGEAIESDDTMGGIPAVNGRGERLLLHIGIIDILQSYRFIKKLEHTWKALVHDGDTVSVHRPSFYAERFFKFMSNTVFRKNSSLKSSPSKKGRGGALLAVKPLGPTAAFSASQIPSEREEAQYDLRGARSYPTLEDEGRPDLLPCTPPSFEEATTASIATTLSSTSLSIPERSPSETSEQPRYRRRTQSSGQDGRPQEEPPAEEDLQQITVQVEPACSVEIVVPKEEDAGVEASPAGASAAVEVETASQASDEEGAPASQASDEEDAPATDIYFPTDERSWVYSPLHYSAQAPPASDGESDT

CN1C(=O)[C@@H](CC2CCCC2)N(C2CCCC2)c2nc(Nc3cc(Cl)c(O)c(Cl)c3)ncc21 [7a, (R)-8-cyclopentyl-7-(cyclopentylmethyl)-2-((3,5-dichloro-4-hydroxyphenyl)amino)-5-methyl-7,8-dihydropteridin-6(5H)-one]
ROS [1]: increased | ADP concentration [2]: unchanged | reduction of intracellular ATP level ([2]; bioluminescence assay or HPLC, compound overnight): 15% | increase in AMP concentration ([2]; triple quadrupole LC-MS/MS): 30% | inhibition of mTOR/FRAP1 in vitro [3]: did not inhibit | p38 phosphorylation ([4]; 20 μM): increased | levels of cell-cycle inhibitors p21 and p27 ([4]; BT474): increased levels | mTORC1 activity (S6K phosphorylation) ([4]; BT474): less S6K phosphorylation | AMPK activation (phosphorylation of ACC and raptor) ([4]; BT474, 0, 10 and 20 μM): activated | AMPK activation ([4]; BT474, absence of serum): caused AMPK activation | AMPK activation ([4]; BT474, with serum, 32° C.): no longer caused AMPK activation | AMPK activation ([4]; BT474, with serum, 37° C.): activated | lactate accumulated in the media ([5]; 48 hours after treatment): 7.7 mM | reduction of glucose concentration in the media ([5]; 48 hours after treatment): 10.3 mM | increase in glucose consumption ([5]; after 2 days of cell culture): 32% | increase in lactate secretion ([5]; after 2 days of cell culture): 45% | remaining activity at 0.5 µM [6]: 73% | cell cycle distribution [7]: accumulation of cells in the G0/G1 phase | remaining activity at 0.5 µM [8]: 72% | inhibition of other lipid kinases of the panel [9]: did not inhibit most PI3Ks, PI4Ks or sphingosine kinases | cell death [10]: selectively kills p53(−/−) cells | lactate fermentation ([11]; absence of serum): slightly increased | metabolic switch induced by serum (glucose consumption, lactate secretion) ([11]; with serum): prevented | AMPK activation ([12]; MCF7, absence of serum): caused AMPK activation | AMPK activation ([12]; MCF7, with serum): no longer caused AMPK activation | remaining activity at 0.5 µM [13]: 83% | remaining activity at 0.5 µM [14]: 98% | remaining activity at 0.5 µM [15]: 50%
